“Also recorded” adds a separate entry of the source. No end group written: not given here.
Assays:
hMRP4 = biological target: T1, hMRP4 (Homo sapiens, UniProt O15439); experiment: MST binding assay, hMRP4; conditions: MST, three independent measurements
T1 sequence (O15439 1-1325): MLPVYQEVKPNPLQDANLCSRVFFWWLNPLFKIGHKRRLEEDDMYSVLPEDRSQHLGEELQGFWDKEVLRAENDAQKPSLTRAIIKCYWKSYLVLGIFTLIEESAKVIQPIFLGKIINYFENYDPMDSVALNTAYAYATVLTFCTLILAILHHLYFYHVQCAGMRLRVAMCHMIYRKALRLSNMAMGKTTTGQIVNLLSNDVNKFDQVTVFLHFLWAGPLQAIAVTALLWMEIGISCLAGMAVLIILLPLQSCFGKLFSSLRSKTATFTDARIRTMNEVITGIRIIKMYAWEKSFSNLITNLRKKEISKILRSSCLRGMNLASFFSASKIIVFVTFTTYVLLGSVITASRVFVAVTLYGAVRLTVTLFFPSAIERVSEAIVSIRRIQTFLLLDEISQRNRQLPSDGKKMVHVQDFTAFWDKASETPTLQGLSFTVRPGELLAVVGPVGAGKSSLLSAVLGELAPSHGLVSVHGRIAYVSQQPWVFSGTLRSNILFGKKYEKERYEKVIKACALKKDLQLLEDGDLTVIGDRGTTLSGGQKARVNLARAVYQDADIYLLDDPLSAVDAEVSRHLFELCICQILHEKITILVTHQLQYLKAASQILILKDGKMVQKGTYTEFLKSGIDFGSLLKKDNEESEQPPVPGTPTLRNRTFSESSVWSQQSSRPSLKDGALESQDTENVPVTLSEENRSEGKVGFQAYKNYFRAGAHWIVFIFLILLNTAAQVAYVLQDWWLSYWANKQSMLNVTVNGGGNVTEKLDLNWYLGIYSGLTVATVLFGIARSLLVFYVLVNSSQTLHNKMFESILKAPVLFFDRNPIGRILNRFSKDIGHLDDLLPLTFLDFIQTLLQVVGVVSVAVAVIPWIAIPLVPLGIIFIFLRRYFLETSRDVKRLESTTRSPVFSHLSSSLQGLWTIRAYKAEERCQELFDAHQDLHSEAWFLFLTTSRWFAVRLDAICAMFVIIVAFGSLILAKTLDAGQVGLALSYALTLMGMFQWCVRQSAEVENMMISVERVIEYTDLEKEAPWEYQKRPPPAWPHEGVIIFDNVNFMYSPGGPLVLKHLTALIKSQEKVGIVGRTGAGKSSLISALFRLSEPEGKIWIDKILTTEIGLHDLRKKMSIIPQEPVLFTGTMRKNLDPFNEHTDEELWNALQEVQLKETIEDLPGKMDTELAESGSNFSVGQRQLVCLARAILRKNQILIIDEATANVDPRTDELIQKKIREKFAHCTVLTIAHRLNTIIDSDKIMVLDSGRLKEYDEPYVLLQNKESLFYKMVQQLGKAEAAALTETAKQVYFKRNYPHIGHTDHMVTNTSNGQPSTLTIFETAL

GFP-hMRP5 = experiment: Doxorubicin transport assay in Xenopus laevis oocytes; format: cell-based, human; conditions: oocytes expressing both hMRP5 and M5PI vs only hMRP5; 200 μM doxorubicin, 180 min; two-tailed t-test *P = 0.0442
Procedure: The transport assay was essentially done and modified as described. In brief, the cRNAs of C-terminal GFP-tagged hMRP5 and C-terminal mcherry-tagged M5PI were prepared from the linearized pcs2CAG vector DNA templates using the mMESSAGE mMACHINE T7 transcription system (Thermo Scientific, AM1344). Xenopus oocytes were injected with approximately 30 nl of cRNA (GFP-tagged hMRP5 and mcherry-tagged M5PI have the equal quantity 30 ng) or water after maintained in ND96 solution (96 mM NaCl, 2 mM KCl, 1 mM MgCl2, 1.8 mM CaCl2, 5 mM HEPES, pH 7.4) overnight. After 3 days of culture, the GFP and mcherry fluorescence of oocytes was detected using Nikon Confocal A1R, and oocytes showing similar fluorescence intensity were selected for assay. Then, oocytes were pre-incubated in Kulori buffer (90 mM NaCl, 1 mM KCl, 1 mM MgCl2, 5 mM HEPES, pH 7.4) for 5 min before being transferred to 1 ml Kulori buffer containing 200 μM doxorubicin for 180 min. The assay was stopped by removing the buffer and then washed with Kulori buffer at least 3 times and transferred into 1.5 ml tubes (3 oocytes per tube). Excess washing buffer was removed from the tube, and then 50 μl 50% methanol was added to the tube for oocyte homogenization by pipetting. The homogenized samples were centrifuged at 10,000 × g for 10 min at 4 °C, and the supernatants were transferred into new tubes and incubated at −20 °C until further analysis. The samples were acquired with a Q Exactive mass spectrometer coupled with UltiMate 3000 liquid chromatography system (Thermo scientific, CA, USA) after centrifugation at 20,000 × g for 15 min at 4 °C. A Hypersil GOLDTM C18 column (2.1 ×100 mm, 1.9 μm, Thermo Scientific) was used at a flow rate of 0.3 ml min^−1 for separation. Mobile phase A was 0.1% formic acid, while mobile phase B was acetonitrile modified with 0.1% formic acid. The mass spectrometer was operated in positive mode with a spray voltage of 3.5 kV. Full scan mass spectrometry data were recorded from the m/z range of 80–800. A standard dilution curve for quantification of doxorubicin was done. Statistical analysis of the transport assay results was performed using GraphPad Prism. Source data is provided as Source Data 6. The mass spectrometry data is provided as Supplementary Data 3.

Sequence: CSKFRRTRPLECQDALETAARAEGLSLDASMHSQLRILDEC (cysteines drawn unpaired) [M5PI]
- binding affinity to hMRP4, in words (hMRP4): not detectable; also recorded: could not be estimated through MST test; also recorded: rarely
- inhibition of doxorubicin transport, in words (GFP-hMRP5): contained a relatively higher amount of doxorubicin than oocytes expressing only hMRP5
